Experimental data as given in US20230159467A1, “NOVEL COMPOUNDS USEFUL IN THE TREATMENT AND/OR PREVENTION OF A DISEASE, DISORDER OR CONDITION ASSOCIATED WITH ANGIOTENSIN II” (Vicore Pharma AB, priority 2020, published 2023).

Tests used:
[1] = Stability in human liver microsomes; assay type: in vitro ADME; conditions: half-life
Procedure: (§1) Stability in liver microsomes. Human, mouse and rat liver microsomes were used to assess the metabolic stability for the compounds. Metabolic stability was determined in 0.5 mg/mL human, mouse or rat liver microsomes at a compound concentration of 1 μM in 100 mM potassium phosphate buffer (pH 7.4) in a total incubation volume of 500 μL by Eurofins. The assay matrix was: human liver microsomes: mixed gender and pool of 50, rat liver microsomes: male, Sprague-Dawley, pool of 100 or more and mouse liver microsomes: male,CD-1, pool of 250 or more. Final microsomal protein concentration: 0.1mg/mL. The test concentration was 0.1 μM with 0.01% DMSO, 0.25% acetonitrile and 0.25% methanol by default. […] The reaction was initiated by adding NADPH-generating system and was incubated for 0, 15, 30, 45, and 60 min. The reaction was stopped by transferring the incubation mixture to acetonitrile/methanol. Samples were then mixed and centrifuged. Four reference compounds were tested in each assay. Propranolol and imipramine are relatively stable, whereas verapamil and terfenadine are readily metabolized inhuman liver microsomes. Samples were analyzed by HPLC-MS/MS using selected reaction monitoring. The HPLC system consisted of a binary LC pump with autosampler, a C-18 column, and a gradient. Peak areas corresponding to the test compound were recorded. The compound remaining was calculated by comparing the peak area at each time point to time zero. The half-life was calculated from the slope of the initial linear range of the logarithmic curve of compound remaining (%) vs. time, assuming first order kinetics. In addition, the intrinsic clearance (Clint) was calculated.^19,20

[2] = Stability in mouse liver microsomes; assay type: in vitro ADME; conditions: half-life
Procedure: as §1

[3] = Stability in rat liver microsomes; assay type: in vitro ADME; conditions: half-life
Procedure: as §1

[4] = Kinetic solubility in PBS pH 7.4; assay type: physicochemical; conditions: Dulbecco's PBS buffer, aqueous buffer, kinetic from dmso stock; PBS pH 7.4, 24 h room temperature, 2% DMSO
Procedure: Kinetic solubility. Dulbecco's PBS buffer was used (NaCl 137 mM, KCl 2.7 mM, Na2HPO4 8.1 mM, KH2PO4 1.5 mM with pH 7.4). The test compound is prepared at 200 μM in the PBS buffer from a 10 mM DMSO stock solution. The final DMSO concentration is 2%. The buffer samples were mixed thoroughly followed by incubation at room temperature for 24 h. At the end of the incubation, the buffer samples were centrifuged and supernatants were then injected for the HPLC analysis. A calibration standard of the test compound was prepared at 200 μM in methanol/water (3/2, v/v) from a 10 mM DMSO stock solution on the day of HPLC analysis. The analysis was conducted by HPLC-UV/VIS with photodiode array detection, with monitoring at 205, 230, 260, and 300 nm wavelengths. The HPLC system consisted of a C18 column using a gradient of A and B (A=12 mM ammonium formate, 6 mM formic acid in water, pH 4.0, B=6 mM ammonium formate, 3 mM formic acid acetonitrile/water (9/1, v/v)). Reference compounds used were metoprolol, rifampicin, ketoconazole, phenytoin, haloperidol, simvastatin, diethylstilbestrol, and tamoxifen, ranking from fully soluble (200 μM) to poorly soluble (<1μM). […] The range of the assay was approximately 0.5 μM to 200 μM. The chromatographic purity (%) was determined as the peak area of the principal peak relative to the total integrated peak areas in the HPLC chromatogram of the calibration standard.

CYP2B6 = biological target: T1, CYP2B6 (Homo sapiens, UniProt P20813); test: CYP450 inhibition assay, pooled human liver microsomes, bupropion substrate; conditions: for inhibition at 10 min, 10 µM: both, human, pooled human liver microsomes, pH 7.4, probe bupropion
T1 sequence (P20813 1-491): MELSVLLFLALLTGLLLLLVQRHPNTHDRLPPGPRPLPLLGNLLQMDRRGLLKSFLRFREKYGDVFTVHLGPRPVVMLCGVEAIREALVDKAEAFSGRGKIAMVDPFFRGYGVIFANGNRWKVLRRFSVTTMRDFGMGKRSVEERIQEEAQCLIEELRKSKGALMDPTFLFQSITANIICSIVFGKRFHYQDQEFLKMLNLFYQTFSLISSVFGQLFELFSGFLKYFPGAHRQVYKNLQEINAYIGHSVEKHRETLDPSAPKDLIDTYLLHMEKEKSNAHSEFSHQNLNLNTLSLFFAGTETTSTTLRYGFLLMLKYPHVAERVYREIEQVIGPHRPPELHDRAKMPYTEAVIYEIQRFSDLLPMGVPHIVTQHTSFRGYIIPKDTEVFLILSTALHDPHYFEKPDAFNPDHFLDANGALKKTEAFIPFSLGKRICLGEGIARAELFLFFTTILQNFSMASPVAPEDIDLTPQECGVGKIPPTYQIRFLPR

CYP3A [5] = test: CYP450 inhibition assay, pooled human liver microsomes, midazolam substrate; conditions: for inhibition at 10 min, 10 µM: both, human, pooled human liver microsomes, pH 7.4, probe midazolam
CYP1A = biological target: T2, CYP1A (Homo sapiens, UniProt P05177); test: CYP450 inhibition assay, pooled human liver microsomes, phenacetin substrate; conditions: for inhibition at 10 min, 10 µM: both, human, pooled human liver microsomes, pH 7.4, probe phenacetin
T2 sequence (P05177 1-516): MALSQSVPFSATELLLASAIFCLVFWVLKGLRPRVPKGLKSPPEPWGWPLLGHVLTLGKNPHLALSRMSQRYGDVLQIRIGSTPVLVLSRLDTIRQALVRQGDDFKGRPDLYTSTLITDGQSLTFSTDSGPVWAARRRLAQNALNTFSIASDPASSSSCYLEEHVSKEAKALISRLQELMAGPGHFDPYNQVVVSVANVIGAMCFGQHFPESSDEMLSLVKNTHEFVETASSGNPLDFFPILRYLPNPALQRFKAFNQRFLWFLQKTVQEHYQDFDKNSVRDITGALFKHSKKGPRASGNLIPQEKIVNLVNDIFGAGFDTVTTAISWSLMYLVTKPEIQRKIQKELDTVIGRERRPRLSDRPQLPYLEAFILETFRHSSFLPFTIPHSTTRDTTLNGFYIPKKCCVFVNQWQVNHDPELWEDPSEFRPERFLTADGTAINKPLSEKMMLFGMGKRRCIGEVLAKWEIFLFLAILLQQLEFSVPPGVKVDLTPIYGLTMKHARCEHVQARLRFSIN

CYP2C9 = CYP2C9 (Homo sapiens, UniProt P11712); test: CYP450 inhibition assay, pooled human liver microsomes, diclofenac substrate; conditions: both, human, pooled human liver microsomes, pH 7.4, probe diclofenac
CYP2C19 = CYP2C19 (Homo sapiens, UniProt P33261); test: CYP450 inhibition assay, pooled human liver microsomes, omeprazole substrate; conditions: both, human, pooled human liver microsomes, pH 7.4, probe omeprazole
CYP2C8 = biological target: T3, CYP2C8 (Homo sapiens, UniProt P10632); test: CYP450 inhibition assay, pooled human liver microsomes, amodiaquine substrate; conditions: for inhibition at 10 min, 10 µM: both, human, pooled human liver microsomes, pH 7.4, probe amodiaquine
T3 sequence (P10632 1-490): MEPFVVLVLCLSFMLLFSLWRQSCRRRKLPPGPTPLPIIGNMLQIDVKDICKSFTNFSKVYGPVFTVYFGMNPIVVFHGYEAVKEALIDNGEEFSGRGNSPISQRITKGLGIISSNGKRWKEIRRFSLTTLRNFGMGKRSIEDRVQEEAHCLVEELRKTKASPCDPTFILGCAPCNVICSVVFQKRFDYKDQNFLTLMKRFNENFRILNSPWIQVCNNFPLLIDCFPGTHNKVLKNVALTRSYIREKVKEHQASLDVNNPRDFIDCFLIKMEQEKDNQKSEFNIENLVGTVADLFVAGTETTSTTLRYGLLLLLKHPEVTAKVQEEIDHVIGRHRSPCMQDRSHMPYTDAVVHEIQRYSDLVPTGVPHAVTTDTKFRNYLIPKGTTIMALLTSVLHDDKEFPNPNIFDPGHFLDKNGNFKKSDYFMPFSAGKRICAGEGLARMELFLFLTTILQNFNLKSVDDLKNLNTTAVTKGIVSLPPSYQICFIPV

CYP3A [6] = test: CYP450 inhibition assay, pooled human liver microsomes, testosterone substrate; conditions: at 10 μM; for inhibition at 10 min, 10 µM: both, human, pooled human liver microsomes, pH 7.4, probe testosterone, CYP 450 Inhibition CYP3A testosterone
CYP2D6 = CYP2D6 (Homo sapiens, UniProt P10635); test: CYP450 inhibition assay, pooled human liver microsomes, dextromethorphan substrate; conditions: for inhibition at 10 min, 10 µM: both, human, pooled human liver microsomes, pH 7.4, probe dextromethorphan
human AT1R = biological target: T4, human AT1R (Homo sapiens, UniProt P30556); assay type: binding; conditions: HEK-293 cell membranes
T4 construct: host or cells: HEK-293
T4 sequence (P30556 1-359): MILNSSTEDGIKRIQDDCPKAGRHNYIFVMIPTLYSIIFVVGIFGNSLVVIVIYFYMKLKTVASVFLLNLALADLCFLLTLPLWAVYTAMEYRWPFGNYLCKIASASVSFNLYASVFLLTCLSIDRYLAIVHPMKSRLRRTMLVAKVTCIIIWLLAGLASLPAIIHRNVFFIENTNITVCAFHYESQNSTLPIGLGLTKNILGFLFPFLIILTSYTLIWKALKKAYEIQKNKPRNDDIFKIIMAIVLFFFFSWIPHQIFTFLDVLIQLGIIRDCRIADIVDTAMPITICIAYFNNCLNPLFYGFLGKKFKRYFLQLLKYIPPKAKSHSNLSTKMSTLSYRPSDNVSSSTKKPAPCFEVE

human AT2R = biological target: T5, human AT2R (Homo sapiens, UniProt P50052); assay type: binding; conditions: HEK-293 cell membranes
T5 construct: host or cells: HEK-293
T5 sequence (P50052 1-363): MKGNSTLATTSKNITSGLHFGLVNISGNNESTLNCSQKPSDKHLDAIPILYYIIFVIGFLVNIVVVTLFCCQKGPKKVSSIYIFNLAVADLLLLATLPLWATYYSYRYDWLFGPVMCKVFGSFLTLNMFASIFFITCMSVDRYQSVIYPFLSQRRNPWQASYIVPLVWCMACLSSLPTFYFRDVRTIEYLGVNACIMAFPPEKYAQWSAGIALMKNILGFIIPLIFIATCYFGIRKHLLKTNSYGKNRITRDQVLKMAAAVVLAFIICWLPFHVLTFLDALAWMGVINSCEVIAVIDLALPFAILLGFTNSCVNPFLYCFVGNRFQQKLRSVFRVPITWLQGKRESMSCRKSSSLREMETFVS

Chain of CYP2C9 (P11712 whole entry): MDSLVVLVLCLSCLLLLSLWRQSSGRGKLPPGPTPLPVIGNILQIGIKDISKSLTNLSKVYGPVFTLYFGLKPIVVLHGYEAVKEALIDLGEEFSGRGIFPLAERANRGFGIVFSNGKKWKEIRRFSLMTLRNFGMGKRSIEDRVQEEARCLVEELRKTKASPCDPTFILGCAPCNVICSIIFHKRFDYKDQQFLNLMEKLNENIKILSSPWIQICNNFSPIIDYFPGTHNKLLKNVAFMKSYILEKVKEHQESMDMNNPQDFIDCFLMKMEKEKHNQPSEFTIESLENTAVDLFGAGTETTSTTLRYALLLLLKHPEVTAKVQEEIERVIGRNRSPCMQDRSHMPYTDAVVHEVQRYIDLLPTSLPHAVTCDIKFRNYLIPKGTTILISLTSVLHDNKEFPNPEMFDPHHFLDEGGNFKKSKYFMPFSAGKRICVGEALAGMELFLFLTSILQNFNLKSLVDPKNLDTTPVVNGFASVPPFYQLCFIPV
Chain of CYP2D6 (P10635 whole entry): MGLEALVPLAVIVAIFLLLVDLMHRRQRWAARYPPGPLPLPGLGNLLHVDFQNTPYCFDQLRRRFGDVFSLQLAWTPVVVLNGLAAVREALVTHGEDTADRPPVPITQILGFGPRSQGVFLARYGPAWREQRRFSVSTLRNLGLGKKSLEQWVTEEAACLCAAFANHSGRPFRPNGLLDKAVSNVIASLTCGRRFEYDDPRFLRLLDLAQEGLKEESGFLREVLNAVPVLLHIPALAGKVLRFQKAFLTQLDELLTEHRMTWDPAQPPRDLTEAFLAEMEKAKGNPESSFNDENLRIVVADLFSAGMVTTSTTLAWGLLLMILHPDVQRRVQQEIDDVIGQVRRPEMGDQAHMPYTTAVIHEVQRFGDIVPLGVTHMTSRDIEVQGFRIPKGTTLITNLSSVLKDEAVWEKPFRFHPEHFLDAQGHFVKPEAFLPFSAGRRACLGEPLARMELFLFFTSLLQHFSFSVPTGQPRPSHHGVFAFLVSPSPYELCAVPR
Chain of CYP2C19 (P33261 whole entry): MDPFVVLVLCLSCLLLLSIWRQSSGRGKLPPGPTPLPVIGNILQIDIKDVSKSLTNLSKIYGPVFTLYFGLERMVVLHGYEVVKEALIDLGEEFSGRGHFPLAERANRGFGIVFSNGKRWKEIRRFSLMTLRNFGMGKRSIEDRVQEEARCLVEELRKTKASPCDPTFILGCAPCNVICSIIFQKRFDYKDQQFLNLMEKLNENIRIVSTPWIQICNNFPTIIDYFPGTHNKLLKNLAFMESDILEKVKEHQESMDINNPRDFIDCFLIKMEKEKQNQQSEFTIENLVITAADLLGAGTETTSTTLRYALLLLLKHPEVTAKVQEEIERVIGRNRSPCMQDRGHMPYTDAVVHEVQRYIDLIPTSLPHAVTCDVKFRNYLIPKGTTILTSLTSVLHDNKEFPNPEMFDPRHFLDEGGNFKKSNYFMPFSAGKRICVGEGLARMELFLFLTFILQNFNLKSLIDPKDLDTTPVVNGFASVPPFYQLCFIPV

Row | SMILES | Stability in liver microsomes HLM [1] [min] | Stability in liver microsomes MLM [2] [min] | Stability in liver microsomes RLM [3] [min] | solubility kinetic at 24 h [4] [µM] | inhibition at 10 min, 10 µM (CYP2B6) [%] | inhibition at 10 min, 10 µM (CYP3A [5]) [%] | inhibition at 10 min, 10 µM (CYP1A) [%] | inhibition at 10 min, 10 µM (CYP2C9) [%] | inhibition at 10 min, 10 µM (CYP2C19) [%] | inhibition at 10 min, 10 µM (CYP2C8) [%] | inhibition at 10 min, 10 µM (CYP3A [6]) [%] | inhibition at 10 min, 10 µM (CYP2D6) [%] | CYP 450 Inhibition CYP2B6 (CYP2B6; at 10 μM) [%] | CYP 450 Inhibition CYP3A midazolam (CYP3A [5]; at 10 μM, midazolam substrate) [%] | CYP 450 Inhibition CYP1A (CYP1A; at 10 μM) [%] | CYP 450 Inhibition CYP2C8 (CYP2C8; at 10 μM) [%] | CYP 450 Inhibition CYP3A testosterone (CYP3A [6]) [%] | CYP 450 Inhibition CYP2D6 (CYP2D6; at 10 μM) [%] | Ki (human AT1R) [µM] | Ki (human AT2R) [µM]
1 | CCCCOC(=O)[N-]S(=O)(=O)c1ccc(CC(C)C)cc1-c1ccc(Cn2ccnc2C(C)(C)C)cc1.[K+] [Example 2B, Potassium ((4′-((2-(tert-butyl)-1H-imidazol-1-yl)methyl)-5-isobutyl-[1,1′-biphenyl]-2-yl)sulfonyl)(butoxycarbonyl)amide] | 11 | 10 | 8 | 183 | 57 | 16 | 4.5 | 91 | 71 | 81 | 27 | 15 | – | – | – | – | – | – | – | –
2 | CCCCOC(=O)[N-]S(=O)(=O)c1sc(CC(C)C)cc1-c1ccc(Cn2ccnc2)cc1.[Na+] [Example 13, Sodium ((3-(4-((1H-imidazol-1-yl)methyl)phenyl)-5-isobutylthiophen-2-yl)sulfonyl)(butoxycarbonyl)amide, reference compound] | 36 | 39 | 20 | 198 | 53 | – | 77 | – | 93 | 69 | 84 | – | 63 | 93 | 89 | 82 | 90 | 90 | – | –
3 | CCCCOC(=O)NS(=O)(=O)c1ccc(CC(C)C)cc1-c1ccc(Cn2ccnc2C(C)(C)F)cc1 [Example 32, Butyl ((4′-((2-(2-fluoropropan-2-yl)-1H-imidazol-1-yl)methyl)-5-isobutyl-[1,1′-biphenyl]-2-yl)sulfonyl)carbamate] | – | – | – | – | 29.8 | -11.7 | -3.04 | 43.7 | 31 | 66.5 | 8.43 | 17.1 | – | – | – | – | – | – | – | –
4 | COC(=O)NS(=O)(=O)c1ccc(CC(C)C)cc1-c1ccc(Cn2ccnc2C(C)(C)F)cc1 [Example 34, Methyl ((4′-((2-(2-fluoropropan-2-yl)-1H-imidazol-1-yl)methyl)-5-isobutyl-[1,1′-biphenyl]-2-yl)sulfonyl)carbamate] | – | – | – | – | 6.9 | 9.98 | -5.97 | 42.2 | 43.3 | 70.3 | 18.1 | 16.2 | – | – | – | – | – | – | 15 | 0.0023
